Data published in doi:10.1101/119818v1 (biorxiv, 2017).

Target: T1, PARP3 (Homo sapiens, UniProt Q9Y6F1)
T1 sequence (Q9Y6F1 1-533): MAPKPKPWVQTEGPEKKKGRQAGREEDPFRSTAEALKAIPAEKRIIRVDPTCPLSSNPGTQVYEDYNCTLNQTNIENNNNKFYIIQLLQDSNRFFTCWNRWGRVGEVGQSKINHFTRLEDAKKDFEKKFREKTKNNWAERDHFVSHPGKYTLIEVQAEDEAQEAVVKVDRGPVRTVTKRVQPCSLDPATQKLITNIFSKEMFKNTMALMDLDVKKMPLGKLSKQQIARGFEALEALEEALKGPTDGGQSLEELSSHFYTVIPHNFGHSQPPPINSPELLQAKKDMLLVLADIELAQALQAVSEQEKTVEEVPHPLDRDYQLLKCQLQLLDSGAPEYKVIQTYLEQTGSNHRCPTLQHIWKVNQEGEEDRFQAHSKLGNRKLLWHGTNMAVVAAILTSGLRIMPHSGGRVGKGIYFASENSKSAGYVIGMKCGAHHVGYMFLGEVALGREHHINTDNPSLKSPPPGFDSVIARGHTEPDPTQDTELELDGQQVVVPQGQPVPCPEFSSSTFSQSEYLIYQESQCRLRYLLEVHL
Assay: in vitro enzymatic inhibition assay, concentration response
Format: biochemical

Structure (SMILES): NC(=O)c1cccc2[nH]c(-c3ccc([C@@H]4CCCN4)cc3F)nc12 [A-966492]
- IC50: 728 nM
